Experimental data from patent publication US20090099346A1 (priority 2003, published 2009).

Legend:
[1] = Thermal stability study under accelerated storage conditions (HPLC assay, doxorubicinone quantity, total impurities); assay type: physicochemical
Description: The type II crystalline epirubicin hydrochloride obtained in Example 1 and type I crystalline epirubicin hydrochloride obtained in reference Example 3 were each kept at a temperature 40° C. for six months, thereby simulating accelerated storage conditions. The thermal stability was investigated and measured by studying the following parameters: (1) assay (HPLC method), (2) doxorubicinone quantity (doxorubicinone, an aglycone of epirubicin, is the major epirubicin degradation product), and (3) total impurities.

[2] = Powder X-ray diffraction of commercial batches after accelerated storage; assay type: physicochemical; conditions: 3 commercial batches, 6 months of accelerated storage conditions (40° C.)
Description: In this example, powder X-ray diffraction spectra of crystalline epirubicin hydrochloride of type I and type II were obtained. Powder X-ray diffraction spectra were measured using a Rigaku Cu Anode X-ray Diffractometer (MiniFlex). The conditions for analysis of the samples was as follows:
FIGS. 16, 18 and 20 illustrate the X-Ray Diffraction spectra of the mentioned above 3 commercial batches, undergone 6 months of Accelerated storage conditions (40° C.).

thermal stability by X-Ray Diffraction spectra [2]: thermally stable
Compound: COc1cccc2c1C(=O)c1c(O)c3c(c(O)c1C2=O)C[C@@](O)(C(=O)CO)C[C@@H]3OC1CC(N)C(O)C(C)O1.Cl (stereo partly drawn) [epirubicin hydrochloride]
shelf life ([1]; concluded from the 40° C. storage study, compared with type I): longer than the shelf life of type I crystalline epirubicin hydrochloride
thermal stability ([1]; kept at 40° C. for six months, compared with type I crystalline epirubicin hydrochloride): much greater thermal stability than type I crystalline epirubicin hydrochloride
